# Read-outs that look alike come from different tables or passages of the source.
# Tests used:
# Drosophila OR10a = target: T1, Drosophila OR10a (Drosophila melanogaster, UniProt Q9VYZ1); experiment: Calcium ion fluorescence (GCaMP6) assay, OR10a stable HEK293 cell line; type: cell-based; conditions: for DF norm AVERAGE OR10a: threshold 0.05, below shown as 0
# T1 construct: expressed in transfected cells
# T1 sequence (Q9VYZ1 1-406): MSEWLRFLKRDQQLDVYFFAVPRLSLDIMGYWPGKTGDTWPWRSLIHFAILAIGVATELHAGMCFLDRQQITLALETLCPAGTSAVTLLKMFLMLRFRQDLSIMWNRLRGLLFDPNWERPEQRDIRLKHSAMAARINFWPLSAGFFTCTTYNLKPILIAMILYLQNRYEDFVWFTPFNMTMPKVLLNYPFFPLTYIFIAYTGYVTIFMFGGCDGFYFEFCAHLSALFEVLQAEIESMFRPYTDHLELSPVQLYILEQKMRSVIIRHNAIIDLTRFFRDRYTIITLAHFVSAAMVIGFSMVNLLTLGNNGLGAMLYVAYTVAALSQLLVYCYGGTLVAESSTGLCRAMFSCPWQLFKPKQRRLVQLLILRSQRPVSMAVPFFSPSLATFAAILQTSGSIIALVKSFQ
# T1 sequence (Q9VNB5 1-486 partner): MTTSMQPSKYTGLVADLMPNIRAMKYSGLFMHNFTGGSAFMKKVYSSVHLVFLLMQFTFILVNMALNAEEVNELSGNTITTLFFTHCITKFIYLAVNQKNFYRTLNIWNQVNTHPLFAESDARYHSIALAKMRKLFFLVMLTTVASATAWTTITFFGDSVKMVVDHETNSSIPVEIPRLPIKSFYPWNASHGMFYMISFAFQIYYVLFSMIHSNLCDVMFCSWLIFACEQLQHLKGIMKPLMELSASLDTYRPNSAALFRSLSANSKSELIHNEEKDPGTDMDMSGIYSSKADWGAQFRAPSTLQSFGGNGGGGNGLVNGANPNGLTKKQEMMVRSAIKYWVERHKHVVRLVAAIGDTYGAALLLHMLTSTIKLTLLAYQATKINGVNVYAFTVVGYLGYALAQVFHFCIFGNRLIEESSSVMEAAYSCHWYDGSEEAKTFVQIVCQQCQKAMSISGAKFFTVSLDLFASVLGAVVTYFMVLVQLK
# Summary of the method: (§1)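 HEK293 lines stably expressing each Drosophila OR with GCaMP6, doxycycline-induced (1 μg/mL) 48 or 72 h. Fluorescence recorded 5 s baseline then 30 s after VOC injection at pH 7.3; ΔF=(FMAX−F0)/F0, normalized to 50 µM VUAA1 response per line, triplicate wells averaged; concentration series 0.01–100 μM.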
# Drosophila OR85b = target: T2, Drosophila OR85b (Drosophila melanogaster, UniProt Q9VHQ7); experiment: Calcium ion fluorescence (GCaMP6) assay, OR85b stable HEK293 cell line; type: cell-based; conditions: for activation at 1 µM / activation at 10 µM / activation at 100 µM: HEK293, read-out: OR85b response (VUAA1-normalized response); for Average response: OR85b cell line, VUAA1-normalized response, mean of biological replicates; for DF norm AVERAGE OR85b: threshold 0.05, below shown as 0
# T2 construct: expressed in transfected cells
# T2 sequence (Q9VHQ7 1-390): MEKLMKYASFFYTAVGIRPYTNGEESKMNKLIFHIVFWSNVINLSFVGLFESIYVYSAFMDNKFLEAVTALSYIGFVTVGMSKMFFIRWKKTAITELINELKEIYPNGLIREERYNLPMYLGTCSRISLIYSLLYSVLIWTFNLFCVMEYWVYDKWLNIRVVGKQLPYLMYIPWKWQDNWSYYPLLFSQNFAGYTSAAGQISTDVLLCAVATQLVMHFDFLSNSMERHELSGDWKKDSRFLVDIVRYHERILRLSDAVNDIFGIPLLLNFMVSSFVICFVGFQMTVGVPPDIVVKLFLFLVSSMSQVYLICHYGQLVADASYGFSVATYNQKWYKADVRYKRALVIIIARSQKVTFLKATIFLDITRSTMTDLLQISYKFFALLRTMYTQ
# T2 sequence (Q9VNB5 1-486 partner): T1 sequence (Q9VNB5 1-486 partner)
# Summary of the method: as §1
# [1] = HEK293, 1 μM VOC, 50 μM VUAA1 = 1, responses not exceeding 0.05 considered 0, read-out: OR10a Average response (VUAA1-normalized)
# [2] = HEK293, 10 μM VOC, 50 μM VUAA1 = 1, responses not exceeding 0.05 considered 0, read-out: OR10a Average response (VUAA1-normalized)
# [3] = HEK293, 100 μM VOC, 50 μM VUAA1 = 1, responses not exceeding 0.05 considered 0, read-out: OR10a Average response (VUAA1-normalized)
# [4] = HEK293, read-out: OR10a response (VUAA1-normalized response), VOC concentration 1 μM
# [5] = HEK293, read-out: OR10a response (VUAA1-normalized response), VOC concentration 10 μM
# [6] = HEK293, read-out: OR10a response (VUAA1-normalized response), VOC concentration 100 μM
# [7] = ligand concentration 1 (unit not given)
# [8] = ligand concentration 10 (unit not given)
# [9] = ligand concentration 100 (unit not given)
# [10] = 1 μM VOC, 50 μM VUAA1 = 1, responses not exceeding 0.05 considered 0
# [11] = 10 μM VOC, 50 μM VUAA1 = 1, responses not exceeding 0.05 considered 0
# [12] = 100 μM VOC, 50 μM VUAA1 = 1, responses not exceeding 0.05 considered 0
SMILES,activation at 1 µM (Drosophila OR10a; [1]) [%],activation at 10 µM (Drosophila OR10a; [2]) [%],activation at 100 µM (Drosophila OR10a; [3]) [%],activation at 1 µM (Drosophila OR10a; [4]) [%],activation at 10 µM (Drosophila OR10a; [5]) [%],activation at 100 µM (Drosophila OR10a; [6]) [%],DF norm AVERAGE OR10a (Drosophila OR10a; [7]),DF norm AVERAGE OR10a (Drosophila OR10a; [8]),DF norm AVERAGE OR10a (Drosophila OR10a; [9]),activation at 1 µM (Drosophila OR85b) [%],activation at 10 µM (Drosophila OR85b) [%],activation at 100 µM (Drosophila OR85b) [%],Average response (Drosophila OR85b; cc. 1 µM),Average response (Drosophila OR85b; cc. 10 µM),Average response (Drosophila OR85b; cc. 100 µM),DF norm AVERAGE OR85b (Drosophila OR85b; [7]),DF norm AVERAGE OR85b (Drosophila OR85b; [8]),DF norm AVERAGE OR85b (Drosophila OR85b; [9]),OR10a Average response (VUAA1-normalized) (Drosophila OR10a; [10]),OR10a Average response (VUAA1-normalized) (Drosophila OR10a; [11]),other results
CCCCCCCCCC=O [decanal],0,0,0,0,0,0,0,0,0,0,0,0,0.00,0.0324,0.00,0,0,0,–,–,–
CC/C=C/CCO [e3-hexenol],–,–,–,–,–,–,0,0,0.07404,–,–,–,0.00,0.00,0.0284,0,0,0,0.0153,0.00,OR10a Average response (VUAA1-normalized) (Drosophila OR10a; [12]): 0.074
"CC(C)=CCC/C(C)=C/CC/C(C)=C/CO [e,e-farnesol]",–,–,–,–,–,–,0,0.06329,0,–,–,–,0.053,0.08,0.00,0.05296,0.07925,0,0.034,0.0633,OR10a Average response (VUAA1-normalized) (Drosophila OR10a; [12]): 0.0174; OR10a response (VUAA1-normalized response) (Drosophila OR10a; VOC concentration 1 μM): 0.00; OR10a response (VUAA1-normalized response) (Drosophila OR10a; VOC concentration 10 μM): 0.0633; OR10a response (VUAA1-normalized response) (Drosophila OR10a; VOC concentration 100 μM): 0.00; OR85b response (VUAA1-normalized response) (Drosophila OR85b; VOC concentration 1 μM): 0.053; OR85b response (VUAA1-normalized response) (Drosophila OR85b; VOC concentration 10 μM): 0.08; OR85b response (VUAA1-normalized response) (Drosophila OR85b; VOC concentration 100 μM): 0.00
CCOC(=O)c1ccccc1 [ethyl benzoate],–,–,–,29,45,49,0.2908,0.4538,0.4934,0,0,0,0.0211,0.0371,0.0138,0,0,0,–,–,"activation at 1 µM (Drosophila OR10a; HEK293, read-out: OR10a Average response (VUAA1-normalized), 1 μM VOC, 50 μM VUAA1 = 1, responses not exceeding 0.05 considered 0): 29%; activation at 10 µM (Drosophila OR10a; HEK293, read-out: OR10a Average response (VUAA1-normalized), 10 μM VOC, 50 μM VUAA1 = 1, responses not exceeding 0.05 considered 0): 45%; activation at 100 µM (Drosophila OR10a; HEK293, read-out: OR10a Average response (VUAA1-normalized), 100 μM VOC, 50 μM VUAA1 = 1, responses not exceeding 0.05 considered 0): 49%"
CCCC(=O)OCC [ethyl butyrate],0,2.38,2.76,0,0,0,0,0,0,0,0,0,0.00,0.0253,0.0224,0,0,0,–,–,–
